Test results as given in US8940719B2, “Lithocholic acid analogues that inhibit sialyltransferase” (Academia Sinica, priority 2006, dated 2015).

Columns and labels:
α-2,3-ST = conditions: inhibition of α-2,3-ST, Hsu et al. 2005; cited from earlier work
Rat liver α-2,3-ST = Rat liver α-2,3-ST (Rattus norvegicus (Rat), UniProt Q02734); test: α-2,3-ST inhibition assay (IC50), RP-HPLC of sialylated disaccharide product; format: biochemical; conditions: for IC50: α-2,3-ST, CMP-Neu5Ac substrate, triplicate, read-out: IC50
Rat liver α-2,3-ST, sequence (Q02734 whole entry): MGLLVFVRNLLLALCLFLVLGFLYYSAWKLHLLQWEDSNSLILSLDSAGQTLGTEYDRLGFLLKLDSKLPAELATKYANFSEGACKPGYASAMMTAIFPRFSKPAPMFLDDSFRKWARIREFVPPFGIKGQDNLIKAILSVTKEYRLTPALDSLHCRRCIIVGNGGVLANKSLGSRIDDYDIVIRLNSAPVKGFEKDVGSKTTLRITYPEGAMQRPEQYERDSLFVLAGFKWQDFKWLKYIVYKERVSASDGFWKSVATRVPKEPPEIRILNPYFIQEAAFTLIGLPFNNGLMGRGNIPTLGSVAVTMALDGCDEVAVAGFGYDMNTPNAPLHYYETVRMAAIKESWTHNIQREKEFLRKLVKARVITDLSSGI
Protocol: Compound synthesis was carried out with the following materials according the following general procedures. All chemicals and buffers were purchased from Sigma, Aldrich, or Acros Organics; and all amino acids were purchased from Advanced Chemtech. CMP-Neu5Ac was synthesized starting with sialic acid (Traving & Schauer, Cell. Mol. Life Sci., 1998, 54:1330; Schwarzkopf et al., Proc. Natl. Acad. Sci. USA, 2002, 99:5267). Synthesis of lactose acceptor was achieved as described in Harduin-Lepers et al., Biochimie, 2001, 83:727. Rat liver α-2,3-ST was obtained from CalBiochem at a concentration of 3.7 mU/μL, stored at −80° C., and used within one week. Melting points (m.p.) were recorded with a capillary melting point apparatus (Electrothermal MEL-TEMP); FT-IR spectra were recorded with Perkin Elmer FT-IR Spectrometer (Paragon 1000) in KBr pellets; ^1H and ^13C NMR spectra were recorded with Bruker AMX400 or 500 MHz instruments. Proton chemical shifts (δ) are reported in parts per million (ppm) relative to the methine singlet at 7.24 ppm for the residual CHCl3 in the deuteriochloroform, or the methyl pentet at 3.30 ppm for the residual CHD2OD in the methanol-d4. Carbon chemical shifts are reported in ppm relative to the internal ^13C signals in CDCl3 (77.0 ppm) and CD3OD-d4 (49.0 ppm). Mass spectra were obtained with a FAB JMS-700 double focusing mass spectrometer (JEOL, Tokyo, Japan), MALDI Voyager DE-PRO (Applied Biosystem Houston, USA), and ESI Finnigan LCQ mass spectrometer (Thermo Finnigan, San Jose, Calif., United States) in negative mode. […] The separation procedure was performed using H2O/0.1% trifluoroacetic acid (TFA) (A) and CH3CN/0.05% TFA (B) as eluents.
(§1) Each compound was tested for α-2,3-ST inhibition using CMP-Neu5Ac as a substrate and a modified disaccharide with a 4,5-dimethoxy-2-nitrobenzyl group as a UV-labeled acceptor. Specifically, inhibition assays were performed in triplicate in reaction solution containing 200 mM MES buffer, 100 mM sodium chloride, 0.5 mM disodium-EDTA, 0.01% Triton X-100, 20 μM modified disaccharide, 1.4 mU α-2,3-ST and inhibitor (in dimethyl sulfoxide) in a total volume of 55. Reactions were incubated at 37° C. for 10 minutes at which point 1 mM CMP-Neu5Ac (to a final concentration 3 μM) was added. The solution was then incubated at 37° C. until a detectable amount of product was produced. The reaction was terminated by quenching the solution mixture with heat at 100° C. for 5 minutes. Enzyme activity was determined by monitoring the quantity of sialylated disaccharide product produced over time at 348 nm by RP-HPLC (Supelco Discovery® HS C18, 5 μm, 4.6 mm×25 cm).

rat α-2,3-ST = rat α-2,3-ST (Rattus norvegicus (Rat), UniProt Q02734); test: Inhibition constant (Ki) determination, Lineweaver-Burk plot, varying CMP-Neu5Ac; format: biochemical; conditions: toward CMP-Neu5Ac
rat α-2,3-ST, sequence (Q02734 whole entry): as above
Protocol: as §1, with “cm). […]” for “cm).”
Reactions were prepared in inhibition assay reaction solution described above and were incubated for 10 minutes after which 0.3, 0.15, and 0.037 mM CMP-Neu5Ac was added in the presence of inhibitor at 5, 4.5, 3.5, 2.5, and 0 μM. […] The absolute Ki value was determined from the horizontal intercept of a Lineweaver-Burk plot with […] on the vertical axis and inhibitor concentration on the horizontal axis (FIG. 1).

CL1-5 lung cancer cells [1] = test: Wound healing (cell migration) assay; format: cell-based; conditions: 10 μM, 48 hours, vs DMSO control
Protocol: A section of cells was then scraped from the culture plate to form a gap, and cell migration into the “wound” was observation over 48 hours in the continuous presence of α-2,3-ST inhibitor.

[2] = system: α-2,3-sialylated antigens on CL1-5 cells; test: Cell surface α-2,3-sialylated antigens by FLOW cytometry (FITC-MAL), CL1-5; format: cell-based; conditions: dose-dependent, five days
Protocol: (§2) To determine whether α-2,3-ST inhibition alters cell surface glycosylation, lung cancer cells were treated with Lith-o-Asp and cell surface α-2,3-sialylated antigens were detected by FLOW cytometry. Cells were treated with α-2,3-ST inhibitor for five days after which 1×10^6 lung cancer cells were collected and washed twice with Hank's balanced salt solution (HBSS). Collected cells were incubated with FITC-conjugated MAL (1:50) at 37° C. for 15-20 minutes, non-binding MAL was removed by washing with HBSS, and 3×10^4 cells were detected on a FACScalibur instrument (Becton Dickinson). Two different lung cancer cell lines were tested: CL1-1 with low metastatic potential and CL1-5 with high metastatic potential. Since CL1-5 cells were derived from the CL1-1 line by an in vitro matrix gel invasion assay (Chen et al., Cancer Res., 2001, 61:5223), these cell lines share the same genetic background. Treatment of CL1-1 cells with Lith-o-Asp reduced expression of α-2,3-sialylated antigens to around 15% of DMSO treated control cells at both 5 μM and 20 μM (FIG. 4A). In contrast, Lith-o-Asp inhibited the expression of cell surface α-2,3-sialylated antigens in the highly metastatic CL1-5 lung cancer cells in a dose-dependent manner of greater than 15% (FIG. 4B).

[3] = system: α-2,3-sialylated antigens on CL1-1 cells; test: Cell surface α-2,3-sialylated antigens by FLOW cytometry (FITC-MAL), CL1-1; format: cell-based; conditions: both 5 μM and 20 μM, five days
Protocol: as §2

CL1-5 lung cancer cells [4] = test: Cytotoxicity / cell growth, trypan blue exclusion; format: cell-based; conditions: 5 μM or 10 μM, 48 hours, FBS-free media
Protocol: To determine the effect of the synthesized membrane-permeable α-2,3-ST inhibitors disclosed in Example 1 on cellular processes, in vitro cytotoxicity and adhesion assays were performed on the highly metastatic lung cancer cell line CL1-5. CL1-5 cells were plated at 1×10^6 cells per 60 mm culture dish in DMEM containing 10% fetal bovine serum (FBS) in 5% CO2. The following day the media was replaced with FBS-free media containing inhibitors at 5 μM or 10 μM concentration in DMSO. Controls cells were treated with 0.1% DMSO-containing medium without inhibitor. Cell number and viability were determined 48 hours later by trypan blue exclusion. Treatment with three α-2,3-ST inhibitors, N-Pentyonic (compound 21), Lith-Triethyl-de (compound 20), and Lith-o-Asp (compound 13), inhibited CL1-5 cell growth by between 10-20% compared to control (FIG. 2A).

SMILES	Ki (α-2,3-ST)	IC50 (Rat liver α-2,3-ST)	Ki (rat α-2,3-ST)	type of inhibition (rat α-2,3-ST)	fold potency over lithocholic acid (Rat liver α-2,3-ST; vs lithocholic acid)	migration ability of CL1-5 cells (CL1-5 lung cancer cells [1]; listed as Lith-O-Asp)	migration ability of CL1-5 cells (CL1-5 lung cancer cells [1]; listed as Lith-o-Asp)	inhibition of expression of cell surface α-2,3-sialylated antigens [2]	expression of α-2,3-sialylated antigens, % of DMSO treated control cells [3]	inhibition of CL1-5 cell growth compared to control (CL1-5 lung cancer cells [4])
C[C@@H]1O[C@@H](O[C@H]2[C@H](O[C@H]3[C@H](O[C@H]4CC[C@@]5(C)[C@@H](CC[C@]6(C)[C@@H]5CC=C5[C@@H]7CC(C)(C)C[C@@H](O)[C@]7(C)CC[C@]56C)[C@@]4(C)CO)O[C@H](C(=O)O)[C@@H](O)[C@@H]3O)O[C@H](CO)[C@H](O)[C@@H]2O)[C@H](O)[C@H](O)[C@H]1O [Soyasaponin I]	2100 µM									
C[C@H](CCCn1cc(CCCC(=O)O)nn1)C1CC[C@H]2C3CC[C@@H]4C[C@H](O)CC[C@]4(C)C3CC[C@]12C (stereo partly drawn) [Compound 22, 4-(1-((R)-4-((3R,5R,10S,13R,14S)-3-hydroxy-10,13-dimethyl-hexadecahydro-1H-cyclopenta[a]phenanthren-17-yl)pentyl)-1H-1,2,3-triazol-4-yl)butanoic acid]		5 µM	2.2 µM	noncompetitive inhibition						
C[C@H](CCC(=O)O)C1CC[C@H]2C3CC[C@@H]4C[C@H](OC(=O)[C@@H](N)CC(=O)O)CC[C@]4(C)C3CC[C@]12C (stereo partly drawn) [Compound 13, (R)-4-((3R,5R,10S,13R,14S)-3-((S)-2-amino-3-carboxypropanoyloxy)-10,13-dimethyl-hexadecahydro-1H-cyclopenta[a]phenanthren-17-yl)pentanoic acid]		12 µM			2 fold	inhibited cell migration	significantly decreased	greater than 15%	around 15%	10-20%
